Values of other authors as cited in US11817195B2, “Methods for lowering blood sugar with a gliflozin sodium-glucose cotransport 2 inhibitor pharmaceutical composition” (AstraZeneca UK Limited, priority 2018, dated 2023).

Experiments:
[1] = at least 14 double-blind, placebo-controlled, randomized studies

Structure (SMILES): Cc1ccc([C@@H]2O[C@H](CO)[C@@H](O)[C@H](O)[C@H]2O)cc1Cc1ccc(-c2ccc(F)cc2)s1 [canagliflozin, (2S,3R,4R,5S,6R)-2-[3-[[5-(4-fluorophenyl)thiophen-2-yl]methyl]-4-methylphenyl]-6-(hydroxymethyl)oxane-3,4,5-triol]
- incidence of hyperkalemia (patients with moderate renal impairment, Mikhail, Curr. Drug Safety 9:127-132 (2014)): higher incidence of hyperkalemia

Structure (SMILES): CCOc1ccc(Cc2cc([C@@H]3O[C@H](CO)[C@@H](O)[C@H](O)[C@H]3O)ccc2Cl)cc1 [dapagliflozin, (2S,3R,4R,5S,6R)-2-[4-chloro-3-[(4-ethoxyphenyl)methyl]phenyl]-6-(hydroxymethyl)oxane-3,4,5-triol]
- risk of hyperkalemia (administration of the drug): not correlated with an increased risk of hyperkalemia
- efficacy to lower blood sugar [1]: demonstrated
